Laboratory results taken from patent US20120010179A1, “Methods of using a thiazole derivative” (priority 2006, published 2012).

System: patients with COPD
Assay: Pulmonary function tests (spirometry FEV1, FVC), tetomilast with inhaled albuterol, crossover study (Example 1)
Assay type: in vivo, human
Conditions: for Estimated Treatment Effect, change from baseline in FEV1 (tetomilast versus placebo) / Estimated Treatment Effect, change from baseline in FVC (tetomilast versus placebo) / LS Mean change from baseline in FEV1 (repeated measures ANOVA) / LS Mean change from baseline in FVC (repeated measures ANOVA) / Mean (SD) change from baseline in FEV1 / Mean (SD) change from baseline in FVC: Baseline (Day 0); for Estimated Treatment Effect, change from baseline in FEV1 (tetomilast versus placebo) / Estimated Treatment Effect, change from baseline in FVC (tetomilast versus placebo): both with inhaled albuterol; for LS Mean change from baseline in FEV1 (repeated measures ANOVA) / LS Mean change from baseline in FVC (repeated measures ANOVA) / Mean (SD) change from baseline in FEV1 / Mean (SD) change from baseline in FVC: tetomilast 50 mg QD + inhaled albuterol
Protocol: Pulmonary function tests were conducted throughout the study to monitor the subjects' respiratory status. Flow volume curves were collected via spirometry. Combivent® (Boehringer Ingleheim Pharmaceuticals, Inc., Ridgefield Conn.), which was used for short-acting rescues as needed throughout the studies described below, was withheld for 6 hours prior to any spirometric testing. Spirometry testing was performed at screening, baseline (Day 0), and at specific times during the treatment period. Each subject could have up to 5 spirometric readings at any study time point. Spirometric readings were performed using equipment from the central provider, Quantum Research, Inc. (Louisville, Colo.). All spirometry readings were recorded and sent to Quantum Research, Inc. for analysis
For the spirometric readings, the best effort was reported as follows. The highest acceptable forced expiratory volume in one second (FEV1) value was selected as the “best” of the given test session. If two or more FEV1 values were tied as highest, the sum of FEV1 and forced vital capacity (FVC) for those efforts was used. If both conditions were equal between the two efforts, the values reported were taken from the effort that occurred first, chronologically, based on date and time of the effort.
This study was a multicenter, randomized, double-blind, placebo-controlled, crossover, multiple dose, outpatient study in 27 patients with COPD. All subjects underwent a 28-day washout from inhaled corticosteroids and/or long-acting bronchodilators and/or continuous oxygen therapy (≧16 hours per day) and a 7-day washout from oral beta2-agonists and/or oral theophylline salts prior to baseline. Randomized subjects received an 8-day administration of oral placebo or tetomilast 50 mg oral dose (2×25 mg tablets) once daily (QD). On study Day 8, four consecutive doses of inhaled albuterol (90 μg albuterol base per puff) were given via a metered dose inhaler (MDI) and holding chamber (Ventolin®, GlaxoSmithKline, Research Triangle Park, N.C.), one dose every 30 minutes over the course of 90 minutes at doses of 90 μg+90 μg+180 μg+360 μg for a total dose of 720 μg (albuterol base) or 8 puffs.
Subjects entered a 7-day washout period (study days 9 through 15) and were then crossed over to the alternate treatment arm (placebo or tetomilast 50 mg oral dose). On study [0105] Day 23, the inhaled albuterol multiple dosing was repeated.
On Days 1-6 and 17-21, subjects were instructed to take their oral study medication (placebo or tetomilast 50 mg) QD with 8 ounces of water immediately before breakfast. Subjects assigned to the placebo arm received two placebo tablets QD. On Days 7, 8, 16, 22, and 23, subjects took their oral medication (placebo or tetomilast 50 mg) at the clinic in the presence of the study staff.
Combivent® inhalation aerosol use was allowed for short-acting rescue as needed throughout the study except on study days where PK samples were collected, on days when the multiple doses of inhaled albuterol were administered in the clinic, and/or on days when spirometry testing was performed. On all study days where PK samples were collected, Combivent® was withheld 6 hours prior to the PK draw. Additionally, on study Days 8 and 23 (when the multiple doses of inhaled albuterol were administered in the clinic), Combivent® was withheld 6 hours prior to PK assessment and throughout the duration of the clinic visit. Combivent® was withheld for six hours prior to spirometry testing. The recommended dose of Combivent® Inhalation Aerosol is two inhalations four times a day. In this study, subjects were permitted to take additional inhalations as required; however, the total number of inhalations was not to exceed 12 in 24 hours. Subjects were to “test-spray” three times before using for the first time and in cases where the aerosol had not been used for more than 24 hours. […]

SMILES: CCOc1ccc(-c2nc(-c3cccc(C(=O)O)n3)cs2)cc1OCC [Tetomilast, 2-(3,4-diethoxyphenyl)-4-(2-carboxy-6-pyridyl)thiazole]
- Estimated Treatment Effect, change from baseline in FEV1 (tetomilast versus placebo) (Day 8/23, 5 min postdose): 0.02 L
- Estimated Treatment Effect, change from baseline in FVC (tetomilast versus placebo) (Day 8/23, 5 min postdose): 0.06 L
- LS Mean change from baseline in FEV1 (repeated measures ANOVA) (Day 8/23, 5 min postdose): 0.19 L
- LS Mean change from baseline in FVC (repeated measures ANOVA) (Day 8/23, 5 min postdose): 0.31 L
- Mean (SD) change from baseline in FEV1 (Day 8/23, 5 min postdose): 0.19 (0.19) L
- Mean (SD) change from baseline in FVC (Day 8/23, 5 min postdose): 0.30 (0.28) L
- Estimated Treatment Effect, change from baseline in FEV1 (tetomilast versus placebo) (Day 8/23, 25 min postdose): 0.06 L
- Estimated Treatment Effect, change from baseline in FVC (tetomilast versus placebo) (Day 8/23, 25 min postdose): 0.11 L
- LS Mean change from baseline in FEV1 (repeated measures ANOVA) (Day 8/23, 25 min postdose): 0.21 L
- LS Mean change from baseline in FVC (repeated measures ANOVA) (Day 8/23, 25 min postdose): 0.31 L
- Mean (SD) change from baseline in FEV1 (Day 8/23, 25 min postdose): 0.21 (0.20) L
- Mean (SD) change from baseline in FVC (Day 8/23, 25 min postdose): 0.31 (0.38) L
- Estimated Treatment Effect, change from baseline in FEV1 (tetomilast versus placebo) (Day 8/23, 35 min postdose): 0.05 L
- Estimated Treatment Effect, change from baseline in FVC (tetomilast versus placebo) (Day 8/23, 35 min postdose): 0.09 L
- LS Mean change from baseline in FEV1 (repeated measures ANOVA) (Day 8/23, 35 min postdose): 0.26 L
- LS Mean change from baseline in FVC (repeated measures ANOVA) (Day 8/23, 35 min postdose): 0.41 L
- Mean (SD) change from baseline in FEV1 (Day 8/23, 35 min postdose): 0.26 (0.18) L
- Mean (SD) change from baseline in FVC (Day 8/23, 35 min postdose): 0.41 (0.34) L
- Estimated Treatment Effect, change from baseline in FEV1 (tetomilast versus placebo) (Day 8/23, 55 min postdose): 0.08 L
- Estimated Treatment Effect, change from baseline in FVC (tetomilast versus placebo) (Day 8/23, 55 min postdose): 0.15 L
- LS Mean change from baseline in FEV1 (repeated measures ANOVA) (Day 8/23, 55 min postdose): 0.28 L
- LS Mean change from baseline in FVC (repeated measures ANOVA) (Day 8/23, 55 min postdose): 0.39 L
- Mean (SD) change from baseline in FEV1 (Day 8/23, 55 min postdose): 0.28 (0.19) L
- Mean (SD) change from baseline in FVC (Day 8/23, 55 min postdose): 0.38 (0.31) L
- Estimated Treatment Effect, change from baseline in FEV1 (tetomilast versus placebo) (Day 8/23, 65 min postdose): 0.08 L
- Estimated Treatment Effect, change from baseline in FVC (tetomilast versus placebo) (Day 8/23, 65 min postdose): 0.18 L
- LS Mean change from baseline in FEV1 (repeated measures ANOVA) (Day 8/23, 65 min postdose): 0.32 L
- LS Mean change from baseline in FVC (repeated measures ANOVA) (Day 8/23, 65 min postdose): 0.51 L
- Mean (SD) change from baseline in FEV1 (Day 8/23, 65 min postdose): 0.32 (0.19) L
- Mean (SD) change from baseline in FVC (Day 8/23, 65 min postdose): 0.52 (0.37) L
- Estimated Treatment Effect, change from baseline in FEV1 (tetomilast versus placebo) (Day 8/23, 85 min postdose): 0.07 L
- Estimated Treatment Effect, change from baseline in FVC (tetomilast versus placebo) (Day 8/23, 85 min postdose): 0.13 L
- LS Mean change from baseline in FEV1 (repeated measures ANOVA) (Day 8/23, 85 min postdose): 0.33 L
- LS Mean change from baseline in FVC (repeated measures ANOVA) (Day 8/23, 85 min postdose): 0.48 L
- Mean (SD) change from baseline in FEV1 (Day 8/23, 85 min postdose): 0.33 (0.19) L
- Mean (SD) change from baseline in FVC (Day 8/23, 85 min postdose): 0.47 (0.37) L
- Estimated Treatment Effect, change from baseline in FEV1 (tetomilast versus placebo) (Day 8/23, 95 min postdose): 0.07 L
- Estimated Treatment Effect, change from baseline in FVC (tetomilast versus placebo) (Day 8/23, 95 min postdose): 0.19 L
- LS Mean change from baseline in FEV1 (repeated measures ANOVA) (Day 8/23, 95 min postdose): 0.36 L
- LS Mean change from baseline in FVC (repeated measures ANOVA) (Day 8/23, 95 min postdose): 0.55 L
- Mean (SD) change from baseline in FEV1 (Day 8/23, 95 min postdose): 0.36 (0.19) L
- Mean (SD) change from baseline in FVC (Day 8/23, 95 min postdose): 0.55 (0.40) L
- Estimated Treatment Effect, change from baseline in FEV1 (tetomilast versus placebo) (Day 8/23, 115 min postdose): 0.07 L
- Estimated Treatment Effect, change from baseline in FVC (tetomilast versus placebo) (Day 8/23, 115 min postdose): 0.18 L
- LS Mean change from baseline in FEV1 (repeated measures ANOVA) (Day 8/23, 115 min postdose): 0.35 L
- LS Mean change from baseline in FVC (repeated measures ANOVA) (Day 8/23, 115 min postdose): 0.54 L
- Mean (SD) change from baseline in FEV1 (Day 8/23, 115 min postdose): 0.35 (0.18) L
- Mean (SD) change from baseline in FVC (Day 8/23, 115 min postdose): 0.53 (0.44) L
- Estimated Treatment Effect, change from baseline in FEV1 (tetomilast versus placebo) (Day 8/23, 175 min postdose): 0.09 L
- Estimated Treatment Effect, change from baseline in FVC (tetomilast versus placebo) (Day 8/23, 175 min postdose): 0.15 L
- LS Mean change from baseline in FEV1 (repeated measures ANOVA) (Day 8/23, 175 min postdose): 0.36 L
- LS Mean change from baseline in FVC (repeated measures ANOVA) (Day 8/23, 175 min postdose): 0.53 L
- Mean (SD) change from baseline in FEV1 (Day 8/23, 175 min postdose): 0.36 (0.21) L
- Mean (SD) change from baseline in FVC (Day 8/23, 175 min postdose): 0.52 (0.36) L
- Estimated Treatment Effect, change from baseline in FEV1 (tetomilast versus placebo) (Day 8/23, 235 min postdose): 0.07 L
- Estimated Treatment Effect, change from baseline in FVC (tetomilast versus placebo) (Day 8/23, 235 min postdose): 0.09 L
- LS Mean change from baseline in FEV1 (repeated measures ANOVA) (Day 8/23, 235 min postdose): 0.34 L
- LS Mean change from baseline in FVC (repeated measures ANOVA) (Day 8/23, 235 min postdose): 0.42 L
- Mean (SD) change from baseline in FEV1 (Day 8/23, 235 min postdose): 0.34 (0.25) L
- Mean (SD) change from baseline in FVC (Day 8/23, 235 min postdose): 0.42 (0.48) L
- Estimated Treatment Effect, change from baseline in FEV1 (tetomilast versus placebo) (Day 8/23, 295 min postdose): 0.05 L
- Estimated Treatment Effect, change from baseline in FVC (tetomilast versus placebo) (Day 8/23, 295 min postdose): 0.19 L
- LS Mean change from baseline in FEV1 (repeated measures ANOVA) (Day 8/23, 295 min postdose): 0.25 L
- LS Mean change from baseline in FVC (repeated measures ANOVA) (Day 8/23, 295 min postdose): 0.38 L
- Mean (SD) change from baseline in FEV1 (Day 8/23, 295 min postdose): 0.25 (0.29) L
- Mean (SD) change from baseline in FVC (Day 8/23, 295 min postdose): 0.37 (0.49) L
- Estimated Treatment Effect, change from baseline in FEV1 (tetomilast versus placebo) (Day 8/23, 355 min postdose): 0.13 L
- Estimated Treatment Effect, change from baseline in FVC (tetomilast versus placebo) (Day 8/23, 355 min postdose): 0.24 L
- LS Mean change from baseline in FEV1 (repeated measures ANOVA) (Day 8/23, 355 min postdose): 0.25 L
- LS Mean change from baseline in FVC (repeated measures ANOVA) (Day 8/23, 355 min postdose): 0.34 L
- Mean (SD) change from baseline in FEV1 (Day 8/23, 355 min postdose): 0.25 (0.24) L
- Mean (SD) change from baseline in FVC (Day 8/23, 355 min postdose): 0.34 (0.39) L
- effect on inhaled albuterol response (FEV1, FVC), exploratory repeated measures analysis (inhaled albuterol combined with tetomilast versus inhaled albuterol alone, Day 8/23): possible potentiation of the effect of inhaled albuterol
- FEV1 steady-state (predose) baseline value, Mean (SD) (predose Day 8/23, on tetomilast 50 mg QD, prior to inhaled albuterol): 1.40 (0.61) L
